Experimental data as given in US9221810B2, “Substituted bicyclic aromatic compounds as S-nitrosoglutathione reductase inhibitors” (Nivalis Therapeutics, Inc., priority 2010, dated 2015).

Experiments:
[1] = Mouse pharmacokinetic (PK) study; type: in vivo, male BALB/c mice; details: male, BALB/c, plasma, po, 10 mg/kg, IV 2 mg/kg, read-out: oral bioavailability (% F)
From the text: The mouse was used to determine the pharmacokinetics of compounds of the invention. This species is widely used to assess the bioavailability of compounds by administering both oral (PO) and intravenous (IV) test articles. Efficacy of the compounds of the invention was compared by assessing plasma exposure in male BALB/c mice either via IV or PO administration at the times of peak activity.
Compounds of the invention were reconstituted in a phosphate buffered saline (PBS)/10% Solutol (HS 15) clear solution resulting in a concentration of 0.2 mg/mL and administered to mice (2 mg/kg) as a single IV dose. Animals were dosed via the lateral tail vein. Blood samples were collected at designated time points (0.083, 0.25, 0.5, 1, 2, 4, 8, 16, 24 hours) by cardiac puncture under isoflurane anesthesia (up to 1 mL blood per animal). The blood was collected into tubes containing Li-Heparin. The blood samples were kept on ice until centrifugation within approximately 30 minutes of collection. The plasma was transferred into labeled polypropylene tubes and frozen at −70° C. until analyzed by LC/MS/MS.
The compounds of the invention were reconstituted in 40% Propylene Glycol/40% Propylene Carbonate/20% of a 5% Sucrose clear solution resulting in a concentration of 2 mg/mL and administered to mice (10 mg/kg) as a single oral dose via gavage. Blood samples were collected at 0.25, 0.5, 1, 2, 4, 8, 12, 16, 20 and 24 hours post dose by cardiac puncture under isoflurane anesthesia. The blood was collected in tubes containing Li-Heparin. […] The plasma was transferred into labeled polypropylene tubes and frozen at −70° C. until analyzed by LC/MS/MS.
Plasma samples at each timepoint were analyzed using a LC-MS/MS with a lower limit of quantification (LLOQ) of 1 ng/mL. Plasma was analyzed to determine the amount of the compound of the invention in each sample and regression curves generated for each compounds of the invention in the relevant matrixes. […]
In addition to the above PK parameters, bioavailability (% F) was calculated.

[2] = tested on: mouse model of ovalbumin (OVA)-induced asthma; test: Mouse model of ovalbumin (OVA)-induced asthma: MCh-induced AHR (Penh) and eosinophil infiltrate in BALF; type: in vivo; details: single IV dose of 10 mg/kg at 24 h prior to assessment
Protocol: A mouse model of ovalbumin (OVA)-induced asthma was used to screen GSNOR inhibitors for efficacy against methacholine (MCh)-induced bronchoconstriction/airway hyper-responsiveness. This is a widely used and well characterized model that presents with an acute, allergic asthma phenotype with similarities to human asthma. Efficacy of GSNOR inhibitors was assessed using a protocol in which GSNOR inhibitors were administered after OVA sensitization and airway challenge, and prior to challenge with MCh. Bronchoconstriction in response to challenge with increasing doses of MCh was assessed using whole body plethysmography (Penh; Buxco). The amount of eosinophil infiltrate into the bronchoaveolar lavage fluid (BALF) was also determined as a measure of lung inflammation. The effects of GSNOR inhibitors were compared to vehicles and to Combivent (inhaled; IH) as the positive control.
OVA (500 μg/ml) in PBS was mixed with equal volumes of 10% (w/v) aluminum potassium sulfate in distilled water and incubated for 60 min. at room temperature after adjustment to pH 6.5 using 10 N NaOH. After centrifugation at 750×g for 5 min, the OVA/alum pellet was resuspended to the original volume in distilled water. Mice received an intraperitoneal (IP) injection of 100 μg OVA (0.2 mL of 500 μg/mL in normal saline) complexed with alum on day 0. Mice were anesthetized by IP injection of a 0.2-mL mixture of ketamine and xylazine (0.44 and 6.3 mg/mL, respectively) in normal saline and were placed on a board in the supine position. Two hundred fifty micrograms (100 μl of a 2.5 mg/ml) of OVA (on day 8) and 125 μg (50 μl of 2.5 mg/ml) OVA (on days 15, 18, and 21) were placed on the back of the tongue of each animal.
In vivo airway responsiveness to methacholine was measured 24 h after the last OVA challenge in conscious, freely moving, spontaneously breathing mice with whole body plethysmography using a Buxco chamber (Wilmington, N.C.). […] The degree of bronchoconstriction was expressed as enhanced pause (Penh), a calculated dimensionless value, which correlates with the measurement of airway resistance, impedance, and intrapleural pressure in the same mouse. Penh readings were taken and averaged for 4 min. after each nebulization challenge. Penh is calculated as follows: Penh=[(Te/Tr−1)×(PEF/PIF)], where Te is expiration time, Tr is relaxation time, PEF is peak expiratory flow, and PIF is peak inspiratory flow×0.67 coefficient. […]
After measurement of airway hyper-reactivity, the mice were exsanguinated by cardiac puncture, and then BALF was collected from either both lungs or from the right lung after tying off the left lung at the mainstem bronchus. Total BALF cells were counted from a 0.05 mL aliquot, and the remaining fluid was centrifuged at 200×g for 10 min at 4° C. […]

bioavailability [1]: > 9%
Compound: Oc1ccc2nc(-c3ccc(-c4nnn[nH]4)cc3)ccc2c1 [Example 4, 2-(4-(1H-tetrazol-5-yl)phenyl)quinolin-6-ol]
decrease of eosinophil infiltration into BALF [2]: 20 % of vehicle control
decrease of MCh-induced AHR ([2]; p<0.05): 19 % of vehicle control
